# From paper PMC12384096, “TabsPBP2, a Pheromone-Binding Protein Highly Expressed in Male Antennae of Tuta absoluta, Binds Sex Pheromones and Tomato Volatiles” (Biomolecules, 2025)
# Key:
# TabsPBP2 = test: Competitive fluorescence binding assay with 1-NPN probe; parameters: species or system Tuta absoluta; details: competitive displacement of 1-NPN (2 µM), 2 μM TabsPBP2, pH 7.4; for Ki: calculated from IC50
# Method: Fluorescence binding assays were performed on a Cary Eclipse Fluorescence Spectrophotometer (Agilent Technologies, Palo Alto, CA, USA) to quantify TabsPBP2’s binding affinity for sex pheromones and tomato volatiles. Using n-phenyl-1-naphthylamine (1-NPN) as a fluorescent probe (1 mM in methanol), 2 μM TabsPBP2 (in 50 mM Tris-HCl, pH 7.4) were titrated with 1-NPN (2–16 µM). Fluorescence was excited at 337 nm with emission scanned from 350 and 500 nm. Ligand binding affinities were measured via competitive assays with 1-NPN (2 µM). Titration ranges: 0.5–4 μM (sex pheromones) and 2–50 μM (tomato volatiles). The binding constant (K1-NPN) for 1-NPN was calculated, followed by calculation of the dissociation constant (Ki) from IC50 values using the equation: Ki = [IC50]/(1 + [1-NPN]/K1-NPN), where [1-NPN] represents the free concentration of 1-NPN.
# adult T. absoluta = system: adult T. absoluta; parameters: method as in doi:10.1127/entomologia/2024/2399; details: cited from earlier work
# T. absoluta females = system: T. absoluta females; parameters: method as in PMID 29404818; details: cited from earlier work
IC50 (TabsPBP2),Ki (TabsPBP2),Structure (SMILES),behavioral effect on adult T. absoluta (adult T. absoluta),EAG responses in females (T. absoluta females)
13.6 ± 1.85 µM,11.4 ± 1.88 µM,"C=C1CCC2(C(C)C)CC12 (stereo not shown) [sabinene, Sabinene]",–,–
18.6 ± 1.38 µM,13 ± 1.23 µM,"COC(=O)c1ccccc1O [methyl salicylate, Methyl salicylate]",repel,elicit EAG responses
9.98 ± 0.98 µM,7.48 ± 0.57 µM,"CC1=CCC2CC1C2(C)C (stereo not drawn) [α-pinene, α-Pinene]",–,–
7.47 ± 1.2 µM,5.5 ± 0.92 µM,"CC1=CC2C(CC1)C2(C)C (stereo not shown) [2-carene, 2-Carene]",–,–
6.22 ± 0.85 µM,4.68 ± 0.66 µM,"C=CC(=C)CCC=C(C)C [myrcene, Myrcene]",repel,elicit EAG responses
19.5 ± 2.39 µM,13.7 ± 1.9 µM,"CC/C=C\CCO [cis-3-hexen-l-ol, cis-3-Hexen-l-ol]",–,elicit EAG responses

Structure (SMILES),IC50 (TabsPBP2),Ki (TabsPBP2),behavioral effect on adult T. absoluta (adult T. absoluta),EAG responses in females (T. absoluta females)
"CC1=CC=C(C(C)C)CC1 [α-terpinene, α-Terpinene]",14.6 ± 5.16 µM,10.2 ± 3.6 µM,–,–
